Source: article PMC3920258, “Experimental Basis for the High Oral Toxicity of Dinophysistoxin 1: A Comparative Study of DSP” (Toxins, 2014)
Like-named read-outs stand apart in the source and are kept apart here.

What was measured:
[1] = tested on: differentiated Caco-2 cells; experiment: AlamarBlue metabolic activity (viability) assay; type: cell-based, human; details: 1-1000 nM toxin, 6-72 h; highest 1000 nM for 72 h
Protocol: Metabolic activity assay: Cytotoxic effects of OA, DTX1 and DTX2 (1, 10, 20, 40, 100, 200, 500 and 1000 nM) in differentiated Caco-2 cells have been evaluated in a time-dependent manner by the AlamarBlue metabolic activity assay. Incubation with 0.01% Triton X-100 has been used as a positive control of death. Data are shown in Figure 2 as the percent of fluorescence vs. control.
The viability of the Caco-2 cells was measured by Alamar Blue assay, as previously described. Briefly, the Caco-2 cells were seeded onto 96-well plates at an initial concentration of 25,000 cells/mL and cultured until differentiation (21 days) with medium renewal every 2–3 days. Subsequently, cells were treated with increasing concentrations of OA, DTX1, DTX2 and Triton X-100 in the presence of AlamarBlue; then, fluorescence was measured at 6, 8, 10, 12, 24, 48 and 72 hours of incubation using a FL600 Microplate Fluorescence Reader from BioTek (Winooski, VT, USA) at an excitation wavelength of 530 nm and an emission wavelength of 590 nm. Control cells were considered as having 100% viability, and the results are expressed as the percentage of the fluorescence of treated cells versus the fluorescence of control ones.

[2] = tested on: differentiated Caco-2 monolayers; experiment: Annexin V-FITC apoptosis detection, confocal imaging; type: cell-based, human; details: 24 h; for annexin V-FITC fluorescence (apoptosis): 100 nM toxin; for annexin V-FITC fluorescence (apoptosis / cell death), positive controls: 1 μM STP, 100 mM NaBT, 0.005% Triton X-100
From the text: Cell membrane integrity assay: Some fluorescent methods allow a non-destructive evaluation of apoptosis by detecting changes in the structure of cell membranes. Annexin V has a high affinity for phosphatidylserine (PS), a phospholipid component located on the inner surface of the lipid bilayer of the cellular plasma membrane. During early apoptosis processes, this PS migrates to the outer portion, becomes exposed on the surface of the cell and can be detected by binding to annexin V labeled with a fluorescent dye. The annexin V assay was carried out in differentiated Caco-2 monolayers that were treated for 24 h with 100 nM of OA, DTX1, DTX2 or vehicle. Incubation with 0.005% Triton X-100 was used as a positive control of cell death and 1 μM staurosporine (STP) and 100 mM sodium butyrate (NaBT) as inductors of cell apoptosis.
To visualize apoptosis by confocal microscopy in the toxin-treated Caco-2 monolayers, an apoptosis detection kit containing annexin V conjugated with FITC from Immunostep (Salamanca, Spain) was used.
Caco-2 cells were seeded on glass coverslips at an initial concentration of 65 × 10^3 cells/mL and cultured for 21 days until differentiation with medium renewal each 2–3 days. On the 21st day, the cell medium was removed, and the monolayers were treated for 24 h with toxins: OA, DTX1, DTX2, vehicle and positive controls of apoptosis and cellular death (staurosporine (STP), sodium butyrate (NaBT) and Triton-X 100). Immediately after the 24 h of incubation, the medium was removed, and the cells were rinsed 3 times with PBS just before the addition of annexin V-FITC in a proportion of 1:100 diluted in the provided binding buffer. After 15 min of incubation in the dark at room temperature, the cells were rinsed again 3 times with PBS and fixed using paraformaldehyde 2% for 15 min at 4 °C. Finally, another 3 washes with PBS were required prior to mounting the coverslips over microscope glass slides with 10 μL of PBS/Glycerol (1:1) and sealing the edges with nail varnish. Confocal imaging was then carried out with a 40× oil immersion objective of a Nikon Eclipse TE2000-E inverted microscope attached to the C1 laser confocal system and EZ-C1 V.2.20 software (Nikon Instruments Europe B.V., Amstelveen, Netherlands). An argon laser was used to excite the annexin V-FITC conjugated protein (λ excitation = […], λ emission = […]).

[3] = tested on: differentiated Caco-2 monolayers; experiment: Trans-epithelial electrical resistance (TEER) measurement; type: cell-based, human; details: for change in TEER values: 10, 50 and 100 nM, 3, 6, 12 and 24 h
Protocol: We assessed tight junction formation stability through measurements of trans-epithelial electrical resistance (TEER). […] We studied the changes that OA, DTX1 and DTX2 induced in the TEER of the Caco-2 monolayer as a function of time. Differentiated Caco-2 monolayers were incubated with 10, 50 and 100 nM OA, DTX1 and DTX2. TEER was measured immediately before the toxins addition and after 3, 6, 12 and 24 h of incubation with them.
Trans epithelial electric resistance (TEER) was measured across differentiated Caco-2 monolayers, as previously described. The measurements were performed before the treatment with OA, DTX1 and DTX2 (controls), and after each of the incubation times established: 3, 6, 12 and 24 h. Only inserts with TEER higher than 300 Ωcm^2 before the addition of the toxin were used for further testing.

[4] = tested on: occludin in Caco-2 cells; experiment: Confocal microscopy imaging of occludin; type: cell-based, human; details: 24 h; for occludin distribution / location: 100 nM toxin; for occludin distribution, positive controls: 0.005% Triton X-100, 100 mM NaBT, 1 μM STP
Protocol: Tight-junction strands are composed of membrane integral proteins, occludin being the best-studied member. We evaluate the integrity of such tight-junctions in Caco-2 cells treated with 100 nM OA, DTX1 and DTX2 for 24 h by labeling occludin. […] (Figure 5C).
Alexa Fluor® 488-labeled anti-occludin mouse monoclonal antibody from Invitrogen (Camarillo, CA, USA) was used for visualizing occludin, as previously described.
Briefly, differentiated Caco-2 monolayers were treated with OA, DTX1, DTX2, vehicle and positive controls of apoptosis and cellular death: staurosporine (STP), sodium butyrate (NaBT) and Triton-X 100. Immediately after treatments, the cells were fixed and incubated with the anti-occludin antibody. Each experimental condition was performed in duplicate. Confocal imaging was then carried out with a 40× oil immersion objective of a Nikon Eclipse TE2000-E inverted microscope attached to the C1 laser confocal system and EZ-C1 V.2.20 software (Nikon Instruments Europe B.V., Amstelveen, Netherlands). An Argon laser was used to excite the Alexa Fluor 488 conjugated antibody.

[5] = tested on: differentiated Caco-2 monolayers; experiment: Caco-2 permeability assay with microsphere-based immunoassay quantification; type: in vitro ADME, human; details: for transport across the Caco-2 monolayer (apical to basolateral): 50 and 100 nM, 3, 6, 12 and 24 h
Protocol: With the aim of evaluating the transport of OA, DTX1 and DTX2 through the cell monolayer, we performed the permeability assays as described in Section 4.7. Caco-2 cell monolayers were incubated with OA, DTX1 and DTX2 for 3, 6, 12 and 24 h. […] According to the results, almost all the OA and DTX2 remain in the apical side (Figure 6 A,D and C,F). […] Likewise, in the absence of a cell monolayer (shown as no cells in Figure 6), all the toxins easily flow over inserts.
The permeability assay was carried out as previously described. During the assays, cell monolayer integrity was evaluated by measuring TEER at the start and end of the experiment. Once the incubation with the toxins (OA, DTX1 and DTX2) finished (after 3, 6, 12 or 24 h), the medium was collected from both the insert (donor compartment/apical side of the monolayer) and the well (receiver compartment/basolateral side of the monolayer) for toxin quantification purposes. Previously, we confirmed that the toxins easily flow over the naked inserts.
OA, DTX1 and DTX2 samples taken from the inserts/donor compartments and wells/receptor compartments where quantified, as previously described by Fraga et al.. In order to consider the cross-reactivity of the analyzed derivatives of the okadaic acid, DTX-1 and DTX-2, calibration curves were prepared using calibration solutions with CRMs of DTX-1 and DTX-2. Therefore, the quantification of DTX-1 and DTX-2 samples collected from permeability assays were quantified against their respective calibration curves.

[6] = tested on: PP1; details: cited from earlier work
[7] = tested on: PP2A; details: cited from earlier work; for inhibition equivalency factor (IEF): PP2A
[8] = tested on: mice; details: cited from earlier work; for minimum lethal dose: mice, i.p.
[9] = tested on: mice; details: cited from earlier work; for lethal oral dose: mice; for lethal oral dose / mice dead: oral
[10] = tested on: Caco-2 monolayers; details: cited from earlier work
[11] = tested on: Caco-2 cells; parameters: method as in PMID 10806372; details: 1–2 μM; cited from earlier work
[12] = tested on: Caco-2 cells; parameters: method as in PMID 21093526; details: after 24 h; cited from earlier work
[13] = tested on: mice; details: oral administration to mice; cited from earlier work
[14] = EFSA, based on mice i.p. toxicity, reference OA

Compound: C=C1[C@@H](O)[C@@H]2O[C@]3(CC[C@H](/C=C/[C@@H](C)[C@@H]4CC(C)=C[C@@]5(O[C@H](C[C@@](C)(O)C(=O)O)CC[C@H]5O)O4)O3)CC[C@H]2O[C@@H]1[C@@H](O)C[C@H](C)[C@H]1O[C@@]2(CC[C@H]1C)OCCC[C@H]2C [DTX1, dinophysistoxin-1]
- fluorescence intensity (percent of viability vs. control) [1]: did not show any decrease in fluorescence intensity
- annexin V-FITC fluorescence (apoptosis) [2]: Lack of fluorescence
- change in TEER value ([3]; 50 nM, 24 h): significantly decreased
- change in TEER value ([3]; 100 nM, 12 and 24 h): decrease was much more noticeable
- TEER values lowered to ([3]; 100 nM, 12 h): 50%
- TEER values lowered to ([3]; 100 nM, 24 h): 70%
- concentration disrupting the integrity of Caco-2 monolayers ([3]; as stated in abstract): above 50 nM
- concentration disrupting the monolayer integrity ([3]; for 12 h and above): > 100 nM
- occludin distribution / location [4]: fragmented and less uniform staining of occludin
- amount of toxin in the basolateral side ([5]; 100 nM, 24 h): increase in the amount of toxin in the basolateral side
- initial amount recovered from the basolateral side ([5]; 100 nM, 24 h): ~50%
- concentration at which toxin significantly crosses the intestinal epithelium ([5]; as stated in abstract): above 100 nM
- inhibition equivalency factor (IEF), IC50 OA / IC50 analogue [6]: 0.4–0.9
- inhibition equivalency factor (IEF) ([7]; higher IC50 than OA): 0.6–0.9
- inhibition equivalency factor (IEF) ([7]; lower IC50 than OA): 1.6–2.4
- dissociation constant, fold lower compared to OA ([7]; catalytic subunit PP2A): 1.6 fold
- toxicity equivalent factor (TEF) [8, 14]: 1
- minimum lethal dose [8]: 160 µg/kg
- oral toxicity compared with i.p. injection [9]: only slightly less toxic when administered orally than when given by i.p. injection
- lethal oral dose ([9]; ref 58): 300 μg/kg b.w.

Compound: C=C1C(O)C2OC3(CCC(C=CC(C)C4CC(C)=CC5(OC(CC(C)(O)C(=O)O)CCC5O)O4)O3)CCC2OC1C(O)CC(C)C1CCCC2(OCCCC2C)O1 (stereo not shown) [DTX2, dinophysistoxin-2]
- fluorescence intensity (percent of viability vs. control) [1]: did not show any decrease in fluorescence intensity
- annexin V-FITC fluorescence (apoptosis) [2]: Lack of fluorescence
- change in TEER values [3]: did not induce any change
- occludin distribution / location [4]: no modifications on the distribution of occludin
- transport across the Caco-2 monolayer (apical to basolateral) [5]: unable to cross the Caco-2 monolayer
- toxicity relative to OA [7]: equal toxicity
- toxicity equivalent factor (TEF) [8, 14]: 0.6
- toxicity equivalent factor (TEF) ([8]; acute intraperitoneal toxicity in mice): 0.6
- minimum lethal dose [8]: 350 μg/kg b.w.

Compound: CCCC(=O)[O-].[Na+] [NaBT, sodium butyrate]
- annexin V-FITC fluorescence (apoptosis / cell death), positive controls [2]: evident FITC green fluorescence zones
- occludin distribution, positive controls [4]: redistribution of occludin with adjacent diffuse intracellular staining and a granular appearance

Compound: C=C1[C@@H](O)[C@@H]2O[C@]3(CC[C@H](/C=C/[C@@H](C)[C@@H]4CC(C)=C[C@@]5(O[C@H](C[C@@](C)(O)C(=O)O)CC[C@H]5O)O4)O3)CC[C@H]2O[C@@H]1[C@@H](O)C[C@H](C)[C@H]1O[C@@]2(CCCCO2)CC[C@H]1C [OA, okadaic acid]
- fluorescence intensity (percent of viability vs. control) [1]: did not show any decrease in fluorescence intensity
- annexin V-FITC fluorescence (apoptosis) [2]: Lack of fluorescence
- change in TEER values [3]: did not induce any change
- occludin distribution / location [4]: no modifications on the distribution of occludin
- transport across the Caco-2 monolayer (apical to basolateral) [5]: unable to cross the Caco-2 monolayer
- toxicity equivalent factor (TEF) [8, 14]: 1
- lethal oral dose ([9]; ref 54): 400 μg/kg b.w.
- lethal oral dose ([9]; ref 55): 880 μg/kg b.w.
- mice dead ([9]; 1000 μg/kg b.w): 0/5
- mice dead ([9]; 2000 μg/kg b.w.): 4/5
- TEER changes ([10]; 1 to 2 μM, 30 to 90 min): significant TEER reduction
- concentration that decreased the TEER of Caco-2 monolayers [10]: ≥ 600 nM
- TEER changes ([10]; differentiated Caco-2 monolayers, up to 200 nM for 24h): absence of TEER changes
- cell membrane damage and LDH release [11]: no cell membrane damage nor LHD release
- applied dose found in the basolateral side [12]: 2%
- applied dose trapped into Caco-2 cells [12]: 2%–3
- time to repair of damage to the intestinal ultrastructure [13]: ≤ 24 h

Compound: CN[C@@H]1C[C@H]2O[C@@](C)([C@@H]1OC)n1c3ccccc3c3c4c(c5c6ccccc6n2c5c31)C(=O)NC4 [STP, staurosporine]
- annexin V-FITC fluorescence (apoptosis / cell death), positive controls [2]: evident FITC green fluorescence zones
- occludin distribution, positive controls [4]: redistribution of occludin with adjacent diffuse intracellular staining and a granular appearance

Compound: Triton X-100
- annexin V-FITC fluorescence (apoptosis / cell death), positive controls [2]: heavily damaged cell monolayer with noticeable loss of substrate adhesion and fluorescent green dots
- occludin distribution, positive controls [4]: redistribution of occludin with adjacent diffuse intracellular staining and a granular appearance
